Test results from patent publication US20110263608A1, “16-KETO ASPERGILLIMIDES AND HARMFUL ORGANISM CONTROL AGENT COMPRISING THE SAME AS ACTIVE INGREDIENT” (Meiji Seika Pharma Co., Ltd., priority 2008, published 2011).
Where two headings read alike, the source gives them in different places.

What was measured:
Type in all cases: in vivo
[1] = tested on: Ctenocephalides felis; experiment: Fleacidal effect against Ctenocephalides felis (treated filter paper); details: 6.3 ppm acetone solution (200 μL) on filter paper, adults
Experimental: Acetone solution (200 μL) of 6.3 ppm of compound A was dropped on a filter paper having a diameter of 4.0 cm, and the filter paper was air-dried at room temperature to evaporate acetone. The chemical compound-treated filter paper was tightly fitted into a lid (diameter: 3.7 cm) for a 200-mL vial. About 25 adults of Ctenocephalides felis one to 3 days after adult eclosion were released in the 200 mL-volume vial, and the vial was then sealed by the vial lid with the chemical compound-treated filter paper fitted thereinto. The vial was inverted so that Ctenocephalides felis came into contact with the filter paper and, in this state, was left to stand. […] The test was triplicated.
(§1) Death rate (%)={number of dead larvae/(number of survived larvae+number of dead larvae)}×100

[2] = tested on: Haemaphysalis longicornis; experiment: Tickcidal effect against Haemaphysalis longicornis on body surface of mouse; details: larvae
Source text: Skin hair on the back of mice (ICR, male, 5 week olds) was clipped in a diameter of about 2 cm, and a 15-mL polystyrene conical tube cut to have a height of about 1.5 cm was bonded to the body surface of the mice with an instant adhesive.
as §1

[3] = tested on: Haemaphysalis longicornis; experiment: Tickcidal effect against Haemaphysalis longicornis (dry film in glass vial); details: 24 h, read-out: Death rate after one day
Experimental: Acetone solution (30 μl) of 200 ppm of compounds 1 to 9 and 20 ppm of compounds A and B was placed in 4 mL-volume glass vials. The vials were placed on a shaker, and a dry film of the compound was formed on the inner wall of the vials. The vials were dried for 24 hr or longer. Larva ticks of Haemaphysalis longicornis (10 heads) were released in the vials, and the vials were lidded.
as §1

[4] = Single oral administration acute toxicity against rat; details: female, Jcl: Wistar, in vivo, 2000 mg/kg, single oral administration
Experimental: (§2) Compound A was suspended at a concentration of 100 mg/mL using 0.5% methylcellulose. The test solution was forcibly orally administered to rats (Jcl: Wistar, female, 8 week olds) with a tube and a disposable syringe. The dose was 2000 mg/kg. […]

[5] = tested on: rats (Jcl: Wistar, female); experiment: as above; details: single oral dose 2000 mg/kg, 15 days
Experimental: as §2

[6] = tested on: Aphis gossypii; experiment: Insecticidal effect against Aphis gossypii (cucumber leaf disk); details: foliar, 72 h, read-out: insecticidal activity (death rate)
Experimental: A leaf disk having a diameter of 2.0 cm was cut out from a cucumber in pot culture, and test solutions adjusted to a 200 ppm concentration (50% aqueous acetone solution; 0.05% Tween 20 added) were applied to the leaf disk. The leaf disk was then air dried, and first instar larvae were released and were then allowed to stand in a humidistat chamber (light period 16 hr—dark period 8 hr) (25° C.). […] The test was duplicated.
as §1

[7] = tested on: Laodelphax striatellus; experiment: Insecticidal effect against Laodelphax striatellus (root absorption, wheat seedlings); details: 72 h, read-out: insecticidal activity (death rate)
Experimental: A test solution (200 μl) adjusted to a 100 ppm concentration (10% aqueous acetone solution) was applied to the root of wheat seedlings in water culture. After the absorption of the test solution from the root for 3 days, 10 second instar larvae of Laodelphax striatellus were released, and the wheat seedlings were then allowed to stand in a humidistat chamber (light period 16 hr—dark period 8 hr) (25° C.). […] The test was duplicated.
as §1

[8] = tested on: Frankliniella occidentalis; experiment: Insecticidal effect against Frankliniella occidentalis (kidney bean leaf disk); details: 100 ppm, first instar larvae, six days after release
Experimental: A leaf disk having a diameter of 2.8 cm was cut out from kidney bean in pot culture, and a test solutions adjusted to a 100 ppm concentration (50% aqueous acetone solution; 0.05% Tween 20 added) were applied to the leaf disk. The leaf disk was then air dried, and first instar larvae were released and were then allowed to stand in a humidistat chamber (light period 16 hr—dark period 8 hr) (25° C.). […] The test was duplicated. Death rate (%)={number of dead larvae/(number of survived larvae+number of dead larvae)}×100

[9] = 200 ppm, first instar larvae, three days after release
[10] = 200 ppm acetone solution (30 μl), dry film, larva ticks, 25 C
[11] = 100 ppm (200 μl) to root, second instar larvae, three days after release

Question: Which results are given for `C[C@H]1CC(=O)N2C[C@]34C[C@]5(CC(=O)N(C)C5=O)C(C)(C)[C@@H]3C[C@]12C(=O)N4C` [Compound A, 16-keto aspergillimide]?
Answer: Death rate after three days [1]: 73%; Death rate after three days ([2]; dose 2 μg/2 cm^2 on mouse body surface): 60%; Death rate after three days ([2]; dose 6 μg/2 cm^2 on mouse body surface): 93%; Death rate after three days ([2]; dose 10 μg/2 cm^2 on mouse body surface): 100%; pest or weed control at 20 µg/mL [3]: 100%; LD50 at 15 days [4]: ≥ 2000 mg/kg; Cumulative number of dead rats 15 days after administration (number of death/total number of rats tested) [5]: 0/3

Question: Which pest or weed control at 200 ppm [6] does the source give for `C[C@H]1CC(=O)N2C[C@]34C[C@]5(C=CN(C)C5=O)C(C)(C)[C@@H]3C[C@]12C(=O)N4C` [Compound 3] here?
Answer: ≥ 80%

Question: What about the pest or weed control at 200 µg/mL [3] of the same compound?
Answer: 80%

Question: And the pest or weed control at 100 ppm [7]?
Answer: 100%

Question: For `CC(=O)O[C@@H]1C[C@]2(C[C@@]34CN5C(=O)C[C@H](C)[C@]5(C[C@@H]3C2(C)C)C(=O)N4C)C(=O)N1C` [Compound 2], which pest or weed control at 200 ppm [6, 9] is on record?
Answer: ≥ 80%

Question: And the pest or weed control at 200 µg/mL [3, 10]?
Answer: 100%

Question: And the pest or weed control at 100 ppm [7, 11]?
Answer: 100%

Question: With `C[C@H]1CC(=O)N2C[C@]34C[C@]5(CCN(C)C5=O)C(C)(C)[C@@H]3C[C@]12C(=O)N4C` [Compound 4] as the compound, how does the pest or weed control at 200 ppm [6] read?
Answer: ≥ 80%

Question: What about the pest or weed control at 200 µg/mL [3] of the same compound?
Answer: 100%

Question: What about the pest or weed control at 100 ppm [7] of the same compound?
Answer: 100%

Question: With `C[C@H]1CC(=O)N2C[C@]34C[C@@]5(C(=O)N(C)C(=O)C5Cc5ccccc5)C(C)(C)[C@@H]3C[C@]12C(=O)N4C` (some centres unmarked) [Compound 10] as the compound, how does the pest or weed control at 200 ppm [6, 9] read?
Answer: ≥ 80%

Question: Which “insecticidal activity (death rate)” value [8] does the source give for `COC1C[C@]2(C[C@@]34CN5C(=O)C[C@H](C)[C@]5(C[C@@H]3C2(C)C)C(=O)N4C)C(=O)N1C` (some centres unmarked) [Compound 8] here?
Answer: not less than 80%

Question: What about the pest or weed control at 200 ppm [6, 9] of the same compound?
Answer: ≥ 80%

Question: And the pest or weed control at 200 µg/mL [3, 10]?
Answer: 100%

Question: And the pest or weed control at 100 ppm [7, 11]?
Answer: 100%

Question: For `C[C@H]1CC(=O)N2C[C@]34C[C@@]5(C(=O)N(C)C(=O)C5O)C(C)(C)[C@@H]3C[C@]12C(=O)N4C` (some centres unmarked) [Compound 7], which pest or weed control at 200 ppm [6, 9] is on record?
Answer: ≥ 80%

Question: What about the pest or weed control at 200 µg/mL [3, 10] of the same compound?
Answer: 100%

Question: And the pest or weed control at 100 ppm [7, 11]?
Answer: 100%

Question: Which pest or weed control at 200 ppm [6, 9] does the source give for `C[C@H]1CC(=O)N2C[C@]34C[C@]5(CC(OCc6ccccc6)N(C)C5=O)C(C)(C)[C@@H]3C[C@]12C(=O)N4C` (some centres unmarked) [Compound 9] here?
Answer: ≥ 80%

Question: And the pest or weed control at 200 µg/mL [3, 10]?
Answer: 100%

Question: And the pest or weed control at 100 ppm [7, 11]?
Answer: 100%

Question: What does the source list for `C[C@H]1CC(=O)N2C[C@]34C[C@]5(C[C@@H](O)N(C)C5=O)C(C)(C)[C@H]3C[C@]12C(=O)N4C` [Compound 1]?
Answer: pest or weed control at 200 ppm [6]: ≥ 80%; pest or weed control at 200 µg/mL [3]: 80%; pest or weed control at 100 ppm [7]: 100%

Question: For `C[C@H]1CCN2C[C@]34C[C@]5(CC(=O)N(C)C5=O)C(C)(C)[C@@H]3C[C@]12C(=O)N4C` [Compound B, asperparaline A], which pest or weed control at 20 µg/mL ([3]; 20 ppm acetone solution (30 μl), dry film, larva ticks, 25 C) is on record?
Answer: 100%

Question: Which pest or weed control at 200 ppm [6] does the source give for `C[C@H]1CC(=O)N2C[C@@]34C[C@@]5(C(=O)N(C)C=C5C5C[C@]6(C[C@]78CN9C(=O)C[C@H](C)[C@@]9(C[C@H]7C6(C)C)C(=O)N8C)C(=O)N5C)C(C)(C)[C@@H]3C[C@]12C(=O)N4C` (some centres unmarked) [Compound 5] here?
Answer: ≥ 80%

Question: Which results are given for `C[C@H]1CC(=O)N2C[C@]34C[C@@]5(C(=O)N(C)C6OC65)C(C)(C)[C@@H]3C[C@]12C(=O)N4C` (some centres unmarked) [Compound 6]?
Answer: pest or weed control at 200 ppm [6]: ≥ 80%; pest or weed control at 200 µg/mL [3]: 100%; pest or weed control at 100 ppm [7]: 100%
